We go through 1 molecule from patent US9655846B2, “Methods for the preparation of liposomes comprising drugs” (priority 2009, dated 2017).

A short description of data set [1]: Incorporation of docetaxel into liposome. It counts as physicochemical. Conditions: docetaxel added after liposome preparation vs conventional process. How it is done:
As provided herein, the sequence of the addition of docetaxel results in enhanced solubility of the docetaxel. The conventional method of incorporating a hydrophobic drug into liposome is by adding the drug to lipid before liposome preparation. See, e.g., Immordino, M. L. et al., Journal of Controlled Release, 2003, 91: 417-429. By the conventional process, the incorporation of the drug is only 0.3 to 0.7 mg/mL. When docetaxel is added after liposome preparation, the incorporation of docetaxel is increased from 0.3 mg/mL to 5 mg/mL, which is more than 10 fold increase in solubility of the drug in lipid alone.
In the conventional liposome preparation, the drug to lipid molar percent ratio is 4-6% with the incorporation of drug into liposome efficiency is only 56%. See Immordino, M. L. et al., Journal of Controlled Release, 2003, 91: 417-429.

A short description of data set [2]: Stability upon dilution or storage, by reverse phase HPLC. Conditions: for time docetaxel remained soluble and formulation stable upon dilution: RP-HPLC. It counts as physicochemical. How it is done:
Docetaxel (5 mg) was added to 31 μL of oleic acid and mixed using a VORTEX®. Ethanolamine (6 μL) was subsequently added and mixed using a VORTEX®. After mixing, the sample was dispersed in 963 μL of water for injection. Docetaxel was soluble and the formulation clear at 5 mg/mL. Docetaxel remained soluble, and the formulation was stable, upon dilution (1:10 in 2.5% glycerol) up to 24 hours as analyzed by a reverse phase high performance liquid chromatography method.
Docetaxel (5.0 mg) was added to 1 mL of 0.05 M sodium oleate and mixed using a VORTEX®. Docetaxel was soluble and the formulation clear at 5.0 mg/mL. Docetaxel remained soluble, and the formulation was stable, upon dilution (1:10 in 2.5% glycerol) up to 24 hours as analyzed by a reverse phase high performance liquid chromatography method.
Docetaxel (2 mg) was added to 1 mL of 1 M sodium caprylate and mixed by a VORTEX®. Docetaxel was soluble and the formulation clear at 2 mg/mL. Docetaxel remained soluble, and the formulation was stable, upon dilution (1:2 2.5% glycerol) up to 24 hours as analyzed by a reverse phase high performance liquid chromatography method.
Docetaxel (7.0 mg) was added to 1 mL of 1 M sodium linoleate and mixed using a VORTEX®. Docetaxel was soluble and the formulation clear at 7.0 mg/mL. Docetaxel remained soluble, and the formulation was stable, upon dilution (1:10 2.5% glycerol) up to 24 hours as analyzed by a reverse phase high performance liquid chromatography method.
Docetaxel (5 mg) was added to 1 mL of pre-made liposome containing 2 mM sodium oleate and 6% soy phosphatidyl choline, 10% trehalose, pH adjusted to 5-7 using Acetic acid, mixed using a VORTEX®, and microfluidized using a Microfluidizer with 10 passes at 15,000 psi. Five additional passes with the Microfluidizer at 15,000 psi were made to incorporate all 5 mg of the drug into 1 mL of pre-made liposome. Docetaxel was soluble and the formulation was transparent at 5 mg/mL. Docetaxel remained soluble, and the formulation was stable, upon dilution (1:10 in D5W) up to 48 hours as analyzed by a reverse phase high performance liquid chromatography method.
Hydrophobic or lipophilic compounds can be solubilized directly in sodium (or any ion) salt of fatty acid dissolved in an organic solvent. The organic solvent is subsequently removed using rotary evaporation, spray drying, or any other pharmaceutically acceptable processes. The drug-sodium salt of fatty acid mixture is subsequently dispersed in water, isotonic glycerol, or any pharmaceutically acceptable isotonic solution to achieve a desired concentration of the solubilized compound. For example, docetaxel (5 mg/mL) was dissolved in 100 mM sodium oleate in 100% ethanol. Ethanol was completely evaporated using rotary evaporation at 20° C. The docetaxel-sodium oleate was reconstituted with Water For Injection (“WFI”) or 2.5% glycerol to provide 5 mg/mL, 10 mg/mL, or 20 mg/mL concentration of docetaxel.
50 μl of Docetaxel in ethanol (100 mg/mL) was added to 1 mL of pre-made liposome containing 2 mM sodium oleate and 6% soy phosphatidyl choline, 10% trehalose and pH adjusted to 5-7 using Acetic acid, mixed using a VORTEX® and microfluidized using a Microfluidizer with 10 passes at 15,000 psi. Docetaxel was soluble and the formulation is transparent at 5 mg/mL. Docetaxel remained soluble, and the formulation was stable, upon dilution (1:10 in D5W) up to 48 hours as analyzed by a reverse phase high performance liquid chromatography method. […] The lyophilized product is reconstituted with water for injection at 5 mg, 10, or 20 mg/ml, concentration, essentially free of organic solvent.

Take `CC(=O)O[C@@]12CO[C@@H]1C[C@H](O)[C@@]1(C)C(=O)[C@H](O)C3=C(C)[C@@H](OC(=O)[C@H](O)[C@@H](NC(=O)OC(C)(C)C)c4ccccc4)C[C@@](O)([C@@H](OC(=O)c4ccccc4)[C@H]21)C3(C)C` [Docetaxel, docetaxel]: in data set [1], the “increase in solubility of the drug over lipid alone” value is given as “more than 10 fold”. In addition, the “time docetaxel remained soluble and formulation stable upon dilution” value was “up to 24 hours” in data set [2] (Example 6 oleic acid formulation, dilution 1:10 in 2.5% glycerol); “up to 24 hours” in data set [2] (Example 7 sodium oleate formulation, dilution 1:10 in 2.5% glycerol); “up to 24 hours” in data set [2] (Example 8 sodium caprylate formulation, dilution 1:2 2.5% glycerol); “up to 24 hours” in data set [2] (Example 9 sodium linoleate formulation, dilution 1:10 2.5% glycerol); “up to 48 hours” in data set [2] (Example 10 oleate liposome formulation, dilution 1:10 in D5W); “up to 48 hours” in data set [2] (Example 12 nanosome-oleate formulation, dilution 1:10 in D5W). In addition, the “stability of the lyophilized formulation” value in data set [2] (Example 10 oleate liposome formulation) and in data set [2] (Example 12 nanosome-oleate formulation) was “stable for more than a year” throughout. Further, the “time reconstituted docetaxel remained in solution” value in data set [2] (Example 11: docetaxel-sodium oleate reconstituted with WFI or 2.5% glycerol to 5, 10 or 20 mg/mL) is reported as “remained in solution for 2 hours, 4 hours, 6 hours, 8 hours or 24 hours”.
